These results are taken from patent US20240025884A1 (Dong-A ST Co., Ltd., priority 2022, published 2024).

The target of the assay is GCN2 (Homo sapiens (Human), UniProt Q9P2K8). In words: GCN2 Biochemical Assay (TR-FRET, GFP-eIF2S1 substrate phosphorylation). Conditions: read-out: IC50 (GCN2 Inhibitory Activity). The essentials:
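In-house GCN2 (1.6 nM 2× stock) phosphorylates GFP-eIF2S1 (50 nM 2× stock) with ATP (0.2 mM 2× stock) and tRNA, pH 7.5, 70 min at room temperature; 10-point 3.16-fold compound series. TR-FRET detection with Tb-anti-phospho antibody, 2–3 h, Ex 340/Em 490/520 nm; artifact plate spiked with phospho-substrate.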
Background: Time-resolved FRET reads energy transfer from a long-lived donor to a nearby acceptor.

SMILES strings stand for the structures.

Chain of GCN2 (Q9P2K8 whole entry): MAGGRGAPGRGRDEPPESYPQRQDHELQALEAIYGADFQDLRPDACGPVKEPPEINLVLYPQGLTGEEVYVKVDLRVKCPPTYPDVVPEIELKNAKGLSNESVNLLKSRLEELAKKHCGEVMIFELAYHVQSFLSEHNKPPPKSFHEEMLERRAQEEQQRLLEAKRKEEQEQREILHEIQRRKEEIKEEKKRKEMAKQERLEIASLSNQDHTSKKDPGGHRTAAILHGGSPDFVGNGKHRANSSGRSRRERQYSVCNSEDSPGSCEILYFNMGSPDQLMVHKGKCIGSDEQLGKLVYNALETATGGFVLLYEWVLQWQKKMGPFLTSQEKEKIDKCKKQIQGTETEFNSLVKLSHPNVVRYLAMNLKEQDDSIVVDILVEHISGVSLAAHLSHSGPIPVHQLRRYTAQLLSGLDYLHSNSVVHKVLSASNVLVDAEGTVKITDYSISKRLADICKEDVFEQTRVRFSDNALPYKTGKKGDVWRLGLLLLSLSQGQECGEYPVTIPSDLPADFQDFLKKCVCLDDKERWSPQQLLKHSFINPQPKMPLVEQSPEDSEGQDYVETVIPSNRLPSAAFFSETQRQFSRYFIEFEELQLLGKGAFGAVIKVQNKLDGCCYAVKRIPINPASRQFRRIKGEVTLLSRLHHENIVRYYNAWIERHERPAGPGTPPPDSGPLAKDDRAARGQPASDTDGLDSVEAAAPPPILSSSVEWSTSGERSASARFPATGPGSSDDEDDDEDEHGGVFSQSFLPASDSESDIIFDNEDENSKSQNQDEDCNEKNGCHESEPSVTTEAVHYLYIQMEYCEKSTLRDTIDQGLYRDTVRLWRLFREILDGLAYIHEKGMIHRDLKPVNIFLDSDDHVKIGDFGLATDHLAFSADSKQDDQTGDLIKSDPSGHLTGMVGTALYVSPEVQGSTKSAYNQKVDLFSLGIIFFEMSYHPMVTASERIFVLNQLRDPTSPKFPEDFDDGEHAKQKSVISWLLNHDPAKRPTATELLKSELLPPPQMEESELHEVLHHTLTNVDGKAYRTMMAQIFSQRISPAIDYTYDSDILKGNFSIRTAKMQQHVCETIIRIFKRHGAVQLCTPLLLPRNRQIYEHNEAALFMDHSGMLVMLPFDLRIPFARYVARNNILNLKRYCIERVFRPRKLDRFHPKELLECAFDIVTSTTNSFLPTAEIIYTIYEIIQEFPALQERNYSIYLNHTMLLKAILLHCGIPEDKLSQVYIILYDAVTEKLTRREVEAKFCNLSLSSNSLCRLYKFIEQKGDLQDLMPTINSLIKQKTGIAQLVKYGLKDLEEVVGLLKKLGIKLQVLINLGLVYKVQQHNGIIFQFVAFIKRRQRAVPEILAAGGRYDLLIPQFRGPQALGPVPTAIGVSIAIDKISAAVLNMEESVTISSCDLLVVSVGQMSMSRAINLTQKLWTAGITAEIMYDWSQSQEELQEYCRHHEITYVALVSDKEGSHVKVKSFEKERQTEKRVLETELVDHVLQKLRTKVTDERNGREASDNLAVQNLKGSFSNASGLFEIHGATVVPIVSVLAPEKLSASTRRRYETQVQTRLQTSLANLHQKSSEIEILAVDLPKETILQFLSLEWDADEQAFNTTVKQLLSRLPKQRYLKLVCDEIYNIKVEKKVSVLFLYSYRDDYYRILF

On to `Cc1cnc(Nc2cc(C)n(C)n2)nc1-c1c[nH]c2c(NC(=O)CN3CC[C@H](Oc4cc(NCCCO)ncn4)C3)cccc12` [Example 146, (S)-N-(3-(2-((1,5-dimethyl-1H-pyrazol-3-yl)amino)-5-methylpyrimidin-4-yl)-1H-indol-7-yl)-2-(3-((6-((3-hydroxypropyl)amino)pyrimidin-4-yl)oxy)pyrrolidin-1-yl)acetamide], for which the concentration for half-maximal inhibition (IC50) is less than 10 nM.
Take `Cc1cnc(O[C@H]2CCN(CC(=O)Nc3cccc4c(-c5nc(Nc6cc(C)n(C)n6)ncc5C)c[nH]c34)C2)nc1NC1CC1` [Example 191, (S)-2-(3-((4-(cyclopropylamino)-5-methylpyrimidin-2-yl)oxy)pyrrolidin-1-yl)-N-(3-(2-((1,5-dimethyl-1H-pyrazol-3-yl)amino)-5-methylpyrimidin-4-yl)-1H-indol-7-yl)acetamide]: the half-inhibitory concentration (IC50) is less than 10 nM.
In the case of `Cc1cnc(Nc2cc(C)n(C)n2)nc1-c1c[nH]c2c(NC(=O)CN3CC[C@H](Oc4ccnc(N(C)C)n4)C3)cccc12` [Example 220, (S)-N-(3-(2-((1,5-dimethyl-1H-pyrazol-3-yl)amino)-5-methylpyrimidin-4-yl)-1H-indol-7-yl)-2-(3-((2-(dimethylamino)pyrimidin-4-yl)oxy)pyrrolidin-1-yl)acetamide] it was 10 to 100 nM; in that of `Cc1cnc(Nc2cc(C)n(C)n2)nc1-c1c[nH]c2c(N3Cc4c(cccc4-c4cnc(N)nc4)C3=O)cccc12` [Example 418, 4-(2-aminopyrimidin-5-yl)-2-(3-(2-((1,5-dimethyl-1H-pyrazol-3-yl)amino)-5-methylpyrimidin-4-yl)-1H-indol-7-yl)isoindolin-1-one], less than 10 nM; in that of `Cc1cnc(Nc2cc(C)n(C)n2)nc1-c1c[nH]c2c(NC(=O)CN3CC[C@H](Oc4ccnc(NC5CC5)n4)C3)cccc12` [Example 207, (S)-2-(3-((2-(cyclopropylamino)pyrimidin-4-yl)oxy)pyrrolidin-1-yl)-N-(3-(2-((1,5-dimethyl-1H-pyrazol-3-yl)amino)-5-methylpyrimidin-4-yl)-1H-indol-7-yl)acetamide], less than 10 nM.
In the case of `Cc1cnc(Nc2cc(C)n(C)n2)nc1-c1c[nH]c2c(NC(=O)CN3CC[C@H](Oc4cc(C(=O)NC5CC5)on4)C3)cccc12` [Example 124, (S)-N-cyclopropyl-3-((1-(2-((3-(2-((1,5-dimethyl-1H-pyrazol-3-yl)amino)-5-methylpyrimidin-4-yl)-1H-indol-7-yl)amino)-2-oxoethyl)pyrrolidin-3-yl)oxy)isoxazole-5-carboxamide] it was less than 10 nM.
Next, `Cc1cnc(Nc2cc(C)n(C)n2)nc1-c1c[nH]c2c(NC(=O)CN3CC[C@H](Oc4nccc(N5CCCCC5)n4)C3)cccc12` [Example 174, (S)-N-(3-(2-((1,5-dimethyl-1H-pyrazol-3-yl)amino)-5-methylpyrimidin-4-yl)-1H-indol-7-yl)-2-(3-((4-(piperidin-1-yl)pyrimidin-2-yl)oxy)pyrrolidin-1-yl)acetamide]: less than 10 nM; `Cc1cnc(Nc2cc(C)n(C)n2)nc1-c1c[nH]c2c(N3Cc4c(/C=C/C(=O)O)cccc4C3=O)cccc12` [Example 367, (E)-3-(2-(3-(2-((1,5-dimethyl-1H-pyrazol-3-yl)amino)-5-methylpyrimidin-4-yl)-1H-indol-7-yl)-1-oxoisoindolin-4-yl)acrylic acid]: less than 10 nM; `Cc1cnc(Nc2cc(C)n(C)n2)nc1-c1c[nH]c2c(NC(=O)CN3C[C@H](F)[C@H](Oc4ccnc(NC5CC5)n4)C3)cccc12` [Example 52, 2-((3R,4S)-3-((2-(cyclopropylamino)pyrimidin-4-yl)oxy)-4-fluoropyrrolidin-1-yl)-N-(3-(2-((1,5-dimethyl-1H-pyrazol-3-yl)amino)-5-methylpyrimidin-4-yl)-1H-indol-7-yl)acetamide]: less than 10 nM.
For `Cc1cnc(Nc2cc(C)n(C)n2)nc1-c1c[nH]c2c(NC(=O)CN3CC[C@H](Oc4cc(-c5cnn(C)c5)ncn4)C3)cccc12` [Example 249, (S)-N-(3-(2-((1,5-dimethyl-1H-pyrazol-3-yl)amino)-5-methylpyrimidin-4-yl)-1H-indol-7-yl)-2-(3-((6-(1-methyl-1H-pyrazol-4-yl)pyrimidin-4-yl)oxy)pyrrolidin-1-yl)acetamide], the IC50 was less than 10 nM.
Next, `Cc1cnc(Nc2cc(C)n(C)n2)nc1-c1c[nH]c2c(NC(=O)CN3CC[C@H](Oc4cnc(-c5cccnc5)nc4)C3)cccc12` [Example 258, (S)-N-(3-(2-((1,5-dimethyl-1H-pyrazol-3-yl)amino)-5-methylpyrimidin-4-yl)-1H-indol-7-yl)-2-(3-((2-(pyridin-3-yl)pyrimidin-5-yl)oxy)pyrrolidin-1-yl)acetamide]: 10 to 100 nM; `Cc1cnc(Nc2cc(C)n(C)n2)nc1-c1c[nH]c2c(NC(=O)CN3C[C@@H](Oc4ccnc(NC5CC5)n4)C[C@H]3CO)cccc12` [Example 57, 2-((2S,4S)-4-((2-(cyclopropylamino)pyrimidin-4-yl)oxy)-2-(hydroxymethyl)pyrrolidin-1-yl)-N-(3-(2-((1,5-dimethyl-1H-pyrazol-3-yl)amino)-5-methylpyrimidin-4-yl)-1H-indol-7-yl)acetamide]: less than 10 nM; `Cc1cncc(C(=O)Nc2cccc3c2CN(c2cccc4c(-c5nc(Nc6cc(C)n(C)n6)ncc5C)c[nH]c24)C3=O)c1` [Example 334, N-(2-(3-(2-((1,5-dimethyl-1H-pyrazol-3-yl)amino)-5-methylpyrimidin-4-yl)-1H-indol-7-yl)-1-oxoisoindolin-4-yl)-5-methylnicotinamide]: 10 to 100 nM.
As for `Cc1cnc(Nc2cc(C)n(C)n2)nc1-c1c[nH]c2c(NC(=O)CN3CC[C@H](Oc4ccc(F)c(F)c4)C3)cccc12` [Example 84, (S)-2-(3-(3,4-difluorophenoxy)pyrrolidin-1-yl)-N-(3-(2-((1,5-dimethyl-1H-pyrazol-3-yl)amino)-5-methylpyrimidin-4-yl)-1H-indol-7-yl)acetamide], the IC50 lay in the range of 100 to 1000 nM.
Turning to `Cc1cnc(Nc2cc(C)n(C)n2)nc1-c1c[nH]c2c(NC(=O)CN3CC[C@H](Oc4ccnc(NC5CC5)n4)C3)c(N(C)C)ccc12` [Example 3, (S)-2-(3-((2-(cyclopropylamino)pyrimidin-4-yl)oxy)pyrrolidin-1-yl)-N-(3-(2-((1,5-dimethyl-1H-pyrazol-3-yl)amino)-5-methylpyrimidin-4-yl)-6-(dimethylamino)-1H-indol-7-yl)acetamide], the IC50 is less than 10 nM.
In the case of `Cc1cnc(Nc2cc(C)n(C)n2)nc1-c1c[nH]c2c(NC(=O)CN3CC[C@H](Oc4nccc(N)n4)C3)cccc12` [Example 168, (S)-2-(3-((4-aminopyrimidin-2-yl)oxy)pyrrolidin-1-yl)-N-(3-(2-((1,5-dimethyl-1H-pyrazol-3-yl)amino)-5-methylpyrimidin-4-yl)-1H-indol-7-yl)acetamide] it was less than 10 nM.
Next, `Cc1cnc(Nc2cc(C)n(C)n2)nc1-c1c[nH]c2c(NC(=O)CN3CCC(N4CCN(C)CC4)CC3)cccc12` [Example 36, N-(3-(2-((1,5-dimethyl-1H-pyrazol-3-yl)amino)-5-methylpyrimidin-4-yl)-1H-indol-7-yl)-2-(4-(4-methylpiperazin-1-yl)piperidin-1-yl)acetamide]: 100 to 1000 nM; `Cc1cnc(Nc2cc(C)n(C)n2)nc1-c1c[nH]c2c(N3Cc4cccc(-c5ccncc5)c4C3=O)cccc12` [Example 383, 2-(3-(2-((1,5-dimethyl-1H-pyrazol-3-yl)amino)-5-methylpyrimidin-4-yl)-1H-indol-7-yl)-7-(pyridin-4-yl)isoindolin-1-one]: less than 10 nM; `CCCCNc1cc(O[C@H]2CCN(CC(=O)Nc3cccc4c(-c5nc(Nc6cc(C)n(C)n6)ncc5C)c[nH]c34)C2)ncn1` [Example 144, (S)-2-(3-((6-(butylamino)pyrimidin-4-yl)oxy)pyrrolidin-1-yl)-N-(3-(2-((1,5-dimethyl-1H-pyrazol-3-yl)amino)-5-methylpyrimidin-4-yl)-1H-indol-7-yl)acetamide]: less than 10 nM.
In the case of `Cc1cc(Nc2nccc(-c3c[nH]c4c(NC(=O)CN5CC[C@H](Oc6cc(NC7CC7)ncn6)C5)cccc34)n2)nn1C` [Example 7, (S)-2-(3-((6-(cyclopropylamino)pyrimidin-4-yl)oxy)pyrrolidin-1-yl)-N-(3-(2-((1,5-dimethyl-1H-pyrazol-3-yl)amino)pyrimidin-4-yl)-1H-indol-7-yl)acetamide] it was less than 10 nM; in that of `Cc1cnc(Nc2cc(C)n(C)n2)nc1-c1c[nH]c2c(N3Cc4c(cccc4-c4ccc(O)nc4)C3=O)cccc12` [Example 401, 2-(3-(2-((1,5-dimethyl-1H-pyrazol-3-yl)amino)-5-methylpyrimidin-4-yl)-1H-indol-7-yl)-4-(6-hydroxypyridin-3-yl)isoindolin-1-one], less than 10 nM.
Turning to `Cc1cnc(Nc2cc(C)n(C)n2)nc1-c1c[nH]c2c(NC(=O)CN3CC[C@H](Oc4nccc(N(C)C)n4)C3)cccc12` [Example 170, (S)-N-(3-(2-((1,5-dimethyl-1H-pyrazol-3-yl)amino)-5-methylpyrimidin-4-yl)-1H-indol-7-yl)-2-(3-((4-(dimethylamino)pyrimidin-2-yl)oxy)pyrrolidin-1-yl)acetamide], the 50% inhibitory concentration (IC50) is less than 10 nM.
In the case of `Cc1cnc(Nc2cc(C)n(C)n2)nc1-c1c[nH]c2c(NC(=O)CN3CC[C@H](Oc4ncc(F)c(N5CCCCC5)n4)C3)cccc12` [Example 187, (S)-N-(3-(2-((1,5-dimethyl-1H-pyrazol-3-yl)amino)-5-methylpyrimidin-4-yl)-1H-indol-7-yl)-2-(3-((5-fluoro-4-(piperidin-1-yl)pyrimidin-2-yl)oxy)pyrrolidin-1-yl)acetamide] it was less than 10 nM.
Next, `Cc1cnc(Nc2cc(C)n(C)n2)nc1-c1c[nH]c2c(N3Cc4ccc(N)cc4C3=O)cccc12` [Example 269, 6-amino-2-(3-(2-((1,5-dimethyl-1H-pyrazol-3-yl)amino)-5-methylpyrimidin-4-yl)-1H-indol-7-yl)isoindolin-1-one]: less than 10 nM.

A word on the IC50: it is the point on the concentration scale where inhibition reaches its midpoint.
